According to publication PMC4549712, “Inhibition of human GLUT1 and GLUT5 by plant carbohydrate products; insights into transport specificity” (Scientific Reports, 2015):
Values joined by “and” are separate entries in the source; they are usually repeats but may differ in a detail not shown here. Equal values may be shown once.

Columns and labels:
[1] = biological target: T1, human GLUT5 (Homo sapiens, UniProt P22732); assay: entrance counter-flow transport assay, GLUT5-mediated fructose transport in proteoliposomes; format: biochemical
T1 construct: Full length DNA was subcloned into pFastBac1 (Life Technologies) vector with a N-terminal hexahistidine tag; hexahistidine (thrombin-cleavable) (N, cleaved yes); made in house; host or cells: Sf21 insect cells (baculovirus, pFastBac1)
T1 sequence (P22732 1-501): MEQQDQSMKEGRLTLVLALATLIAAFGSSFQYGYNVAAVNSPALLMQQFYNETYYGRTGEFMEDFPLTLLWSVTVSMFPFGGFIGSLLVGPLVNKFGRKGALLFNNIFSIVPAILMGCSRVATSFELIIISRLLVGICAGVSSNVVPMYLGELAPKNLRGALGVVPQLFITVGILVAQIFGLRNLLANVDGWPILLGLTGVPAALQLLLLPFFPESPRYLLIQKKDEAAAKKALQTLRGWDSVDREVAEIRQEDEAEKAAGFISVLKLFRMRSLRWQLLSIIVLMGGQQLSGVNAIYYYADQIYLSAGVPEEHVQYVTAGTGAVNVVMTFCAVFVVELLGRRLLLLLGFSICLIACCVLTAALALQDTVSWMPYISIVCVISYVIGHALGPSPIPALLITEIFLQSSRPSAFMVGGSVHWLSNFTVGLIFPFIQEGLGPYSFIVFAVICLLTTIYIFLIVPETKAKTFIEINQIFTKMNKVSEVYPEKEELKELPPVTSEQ
Description: (§1) Human GLUT1 and GLUT5 were expressed recombinantly in insect cell culture. The purified proteins were reconstituted into proteoliposomes. To measure the inhibition of GLUT1 or GLUT5 transport activity we used entrance counter-flow transport assay.
(§2) Proteoliposomes were generated according to the protocol from[30] with minor modifications. Liposomes were produced from a 95/5% (w/w) mix of soy phosphatidylcholine and cholesterol (Avanti Polar Lipids). Briefly, hexane-washed and vacuum-dried lipids were resuspended to 20 mg/ml in 100 mM KPi (pH 7.5), and then subjected to 11 freeze-and-thaw cycles in liquid nitrogen and room temperature water. The lipid mixture was extruded through a 0.1 μm polycarbonate filter. Prepared liposomes were destabilized with 4 mM Triton X-100 and mixed with purified protein in a 100:1 (w/w) ratio in 100 mM KPi (pH 7.5) 20% (v/v) glycerol, 200 mM (glucose or fructose). Detergent was removed by several additions of SM2 BioBeads (BioRad) and incubated overnight at 4 °C. After filtering out the BioBeads, proteoliposomes were diluted with 100 mM KPi (pH 7.5) 200 mM (glucose or fructose), and then collected by ultracentrifugation, at 200,000 × g and 4 °C, for 1 hour. The proteoliposomes pellet was resuspended in the above buffer so that O.D.600nm was ~30.
To measure hexose transport, we utilized entrance counter-flow assay. Transport was performed in a volume of 100 μL of 100 mM KPi (pH 7.5) buffer containing radioactive ^14C-hexose (4 μM fructose or 5 μM glucose) with inhibitors added before initiation of transport. […] The reaction was started by the addition of 3 μL concentrated proteoliposomes to the above solution and incubated at room temperature; the transport was stopped after one minute by addition of ice-chilled quench buffer [100 mM KPi (pH 5.5) and 100 mM LiCl]. The solution was filtered through a 0.4 μm pore size cellulose nitrate membrane filter (Whatman), and the filter was washed three times with quench buffer. The membrane filter was placed into a vial filled with BioSafe II scintillation liquid (Research Products International Corp.), and radioactivity was quantified with LS 6500 scintillation counter (Beckman). […] Data is presented as relative activity normalized to radioactivity of no inhibitor added as 100% and empty proteoliposomes as 0%. Kinetic parameters were fitted by nonlinear algorithm plots using Prism (GraphPad Software).

[2] = biological target: T2, human GLUT1 (Homo sapiens, UniProt P11166); assay: entrance counter-flow transport assay, GLUT1-mediated glucose transport in proteoliposomes; format: biochemical
T2 construct: Full length DNA was subcloned into pFastBac1 (Life Technologies) vector with a N-terminal hexahistidine tag; hexahistidine (thrombin-cleavable) (N, cleaved yes); made in house; host or cells: Sf21 insect cells (baculovirus, pFastBac1)
T2 sequence (P11166 1-492): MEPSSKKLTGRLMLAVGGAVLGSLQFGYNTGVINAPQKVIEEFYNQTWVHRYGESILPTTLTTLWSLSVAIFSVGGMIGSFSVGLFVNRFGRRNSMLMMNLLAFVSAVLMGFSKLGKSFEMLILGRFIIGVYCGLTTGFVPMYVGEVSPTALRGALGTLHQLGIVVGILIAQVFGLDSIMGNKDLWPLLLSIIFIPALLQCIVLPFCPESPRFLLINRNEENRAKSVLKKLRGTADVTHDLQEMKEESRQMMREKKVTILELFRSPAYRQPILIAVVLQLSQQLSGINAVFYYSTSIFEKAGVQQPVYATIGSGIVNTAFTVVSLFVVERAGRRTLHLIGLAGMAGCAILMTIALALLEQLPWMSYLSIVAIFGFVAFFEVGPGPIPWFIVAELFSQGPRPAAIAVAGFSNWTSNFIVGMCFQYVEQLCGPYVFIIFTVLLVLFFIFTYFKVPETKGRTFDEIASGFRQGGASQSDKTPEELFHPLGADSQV
Method: as §1, with “assay. In GLUT1 and GLUT5 proteoliposomes, substrate transport reached steady state after one minute incubation at room temperature.” for “assay.”
as §2
To measure hexose transport, we utilized entrance counter-flow assay. Transport was performed in a volume of 100 μL of 100 mM KPi (pH 7.5) buffer containing radioactive ^14C-hexose (4 μM fructose or 5 μM glucose) with inhibitors added before initiation of transport. Radioactive substrate uptake in GLUT1 and GLUT5 (wild-type or mutant) proteoliposomes was constant between 1 and 2 mins. The reaction was started by the addition of 3 μL concentrated proteoliposomes to the above solution and incubated at room temperature; the transport was stopped after one minute by addition of ice-chilled quench buffer [100 mM KPi (pH 5.5) and 100 mM LiCl]. The solution was filtered through a 0.4 μm pore size cellulose nitrate membrane filter (Whatman), and the filter was washed three times with quench buffer. The membrane filter was placed into a vial filled with BioSafe II scintillation liquid (Research Products International Corp.), and radioactivity was quantified with LS 6500 scintillation counter (Beckman). […] The transport assays were unaffected by 5% DMSO. Data is presented as relative activity normalized to radioactivity of no inhibitor added as 100% and empty proteoliposomes as 0%. Kinetic parameters were fitted by nonlinear algorithm plots using Prism (GraphPad Software).

Q: Which results are given for `C=C1C[C@@]23CC[C@H]4[C@@](C)(CCC[C@@]4(C)C(=O)O[C@@H]4O[C@H](CO)[C@@H](O)[C@H](O)[C@H]4O)[C@@H]2CC[C@]1(O[C@@H]1O[C@H](CO)[C@@H](O)[C@H](O)[C@H]1O)C3` [Rub, Rubusoside]?
A: inhibition of GLUT5 fructose transport activity ([1]; added at 20 mM): reducing activity to background levels; IC50 ([1]; entrance counter-flow): 6.7 mM and ~5 mM and 5 mM; inhibition of GLUT1 glucose transport activity ([2]; 20 mM): reducing activity to background levels; IC50 ([2]; entrance counter-flow): 4.6 mM and ~5 mM
